Six molecules from PMC12693396, “Discovery of Influenza Neuraminidase Inhibitors: Structure-Based Virtual Screening and Biological Evaluation of Novel Chemotypes” (Molecules, 2025) can be followed below.

A short description of one data set: in vitro. As to conditions: human.
Data set [1] concerns the target recombinant Influenza A H1N1 (A/California/04/2009) neuraminidase (Influenza A virus (A/California/04/2009(H1N1)), UniProt C3W5S3). Kind of data set: Fluorometric MUNANA neuraminidase inhibition assay (NA-Fluor kit). It counts as biochemical.

In the case of `COc1cc2c(cc1OC)C(C(C)C)N(S(N)(=O)=O)CC2` (stereo not shown) [Compound 6, 3,4-Dihydro-6,7-dimethoxy-1-(1-methylethyl)-2(1H)-isoquinolinesulfonamide], the CC50 at 24 h in the data set “in vitro” was 534 µM.

In the data set “in vitro”, `COc1ccc([C@H]2[C@@H](C(=O)O)c3ccccc3C(=O)N2Cc2ccc(Cl)cc2)cc1` [Compound 5, (3R,4S)-2-[(4-Chlorophenyl)methyl]-1,2,3,4-tetrahydro-3-(4-methoxyphenyl)-1-oxo-4-isoquinolinecarboxylic acid] came in with a CC50 at 24 h of 152 µM.

As to `O=C(O)C1CCCN(C(=O)c2c[nH]c3ccccc23)C1` (stereo not shown) [Compound 1, 1-(1H-Indol-3-ylcarbonyl)-3-piperidinecarboxylic acid], in data set [1], the IC50 was greater than 1000 µM. For the same molecule, in data set [1] (read-out: mean inhibition of NA activity, at 100 µM), the inhibition at 100 µM was greater than 15%. In the case of `CCOC(=O)C1=C[C@@H](OC(CC)CC)[C@H](NC(C)=O)[C@@H](N)C1` [oseltamivir, Oseltamivir phosphate, reference compound], the “inhibition of NA activity” value in data set [1] (0.1 µM) is “approximately 20%”. The molecule `COc1cccc2[nH]cc(C(=O)O)c12` [Compound 4, 4-Methoxy-1H-indole-3-carboxylic acid] yielded a CC50 at 24 h in the data set “in vitro” of 244 µM. In “in vitro”, `O=C(O)CCC(=O)c1c[nH]c2ccccc12` [Compound 3, γ-Oxo-1H-indole-3-butanoic acid] yielded a CC50 at 24 h of 671 µM.

Broadly, the IC50 is the concentration at which inhibition is half-maximal. As a reminder, the inhibition is the drop in the measured response relative to a control, in per cent.
